Series [1] addresses T1, Indoleamine 2,3-dioxygenase 1 (Homo sapiens, UniProt P14902). Briefly: Inhibition of IDO1 in human HeLa cells stimulated with IFNgamma using L-tryptophan as substrate incubated for 48 hrs by fluorescence based assay. It counts as cell-based.
Series [2] has as its target T1, Indoleamine 2,3-dioxygenase 1. The experiment in a line: Inhibition of recombinant His-tagged IDO1 (unknown origin) expressed in Escherichia coli preincubated for 30 mins followed by substrate tryptophan addition and measured after 60 mins by fluorescence based assay.
A short description of series [3]: Clearance in human Hepatocyte. The note with it: hepatocytes, read-out: CLH. In kind it is ADME, cell-based.
The nature of series [4]: MRT in rat. In kind it is ADME. The conditions noted are these: in vivo.
The nature of series [5]: Intrinsic clearance in rat. In kind it is ADME.
Series [6] can be described thus: Total clearance in rat. The note with it: in vivo. In kind it is ADME.
A short description of series [7]: Lipophilicity, log D of compound at pH 7 by HPLC analysis. In kind it is physicochemical. The note with it: buffer.
Series [8] is described as follows: Chemical stability of compound in 0.01 N HCl assessed as parent compound remaining measured after 3 hrs. In kind it is physicochemical. The note with it: read-out: Stability.
Series [9] can be described thus: Unbound clearance in rat. In kind it is ADME. The conditions noted are these: in vivo.
Series [10] can be described thus: Toxicity in rat assessed as adverse event. The conditions noted are these: in vivo.
The nature of series [11]: Oral bioavailability in dog. In kind it is ADME, organism-based, Canis lupus familiaris. The note with it: in vivo.
Series [12] is described as follows: Clearance in dog. It counts as ADME, Canis lupus familiaris. The conditions noted are these: in vivo.
Series [13] concerns EMT6. The experiment in a line: Antitumor activity against mouse EMT6 cells xenografted in BALB/c mouse assessed as reduction in tumor volume at 100 mg/kg, po bid in presence of anti-PD1 at 5 mg/kg, […] and measured for weekly twice relative to control. It counts as functional. Set-up: scale not given: the % may be the effect or the level left.
Series [14] is described as follows: Unbound clearance in dog. It counts as ADME, Canis lupus familiaris. The note with it: in vivo.
A short description of series [15]: Oral bioavailability in rat. The conditions noted are these: in vivo. It counts as ADME, organism-based.
A short description of series [16]: Half life in dog. It counts as ADME, Canis lupus familiaris. The conditions noted are these: in vivo.
Series [17] can be described thus: Thermal stability of compound assessed as parent compound remaining measured after 3 hrs. In kind it is physicochemical. The note with it: read-out: Stability.
The nature of series [18]: Chemical stability of compound in 0.1 N NaOH assessed as parent compound remaining measured after 24 hrs. It counts as physicochemical. The conditions noted are these: read-out: Stability.
The nature of series [19]: Chemical stability of compound in AIBN assessed as parent compound remaining measured after 24 hrs. The note with it: read-out: Stability. In kind it is physicochemical.
The test system of series [20] is EMT6. The experiment in a line: Antitumor activity against mouse EMT6 cells xenografted in BALB/c mouse assessed as reduction in tumor volume at 100 mg/kg, po bid and measured for weekly twice relative to control. It counts as functional. Details: scale not given: the % may be the effect or the level left.
Series [21] deals with Indoleamine 2,3-dioxygenase 1 (Mus musculus, UniProt P28776). The experiment in a line: Inhibition of mouse IDO1 preincubated for 30 mins followed by substrate tryptophan addition and measured after 60 mins by fluorescence based assay.
Sequence of Indoleamine 2,3-dioxygenase 1 (Mus musculus, UniProt P28776) (P28776 whole entry): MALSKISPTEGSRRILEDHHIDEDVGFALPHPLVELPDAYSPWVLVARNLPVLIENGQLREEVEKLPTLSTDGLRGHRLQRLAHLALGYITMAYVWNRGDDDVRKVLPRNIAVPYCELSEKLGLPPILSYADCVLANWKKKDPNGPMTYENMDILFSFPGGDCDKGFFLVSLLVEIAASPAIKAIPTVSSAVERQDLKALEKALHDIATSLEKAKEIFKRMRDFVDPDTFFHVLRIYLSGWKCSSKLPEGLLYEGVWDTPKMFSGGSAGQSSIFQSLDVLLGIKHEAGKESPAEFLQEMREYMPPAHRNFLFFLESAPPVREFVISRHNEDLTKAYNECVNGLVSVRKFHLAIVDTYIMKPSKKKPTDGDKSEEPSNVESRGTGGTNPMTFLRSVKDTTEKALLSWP
In another series the target is CYP450 (Homo sapiens, UniProt P04798+P05177+P05181+P08684+P10632+P10635+P11509+P11712+P13584+P20813+P20815+P20853+P24462+P24903+P33260+P33261+P51589+P78329+P98187+Q02928+Q08477+Q16678+Q16696+Q5TCH4+Q6VVX0+Q7Z449+Q8TAV3+Q96SQ9+Q9HB55). The experiment in a line: Inhibition of CYP450 (unknown origin). It counts as ADME, protein assay.
Series [22] is described as follows: Chemical stability of compound in 0.01 N NaOH assessed as parent compound remaining measured after 3 hrs. The note with it: read-out: Stability. It counts as physicochemical.
Series [23] concerns the target Tryptophan 2,3-dioxygenase (Homo sapiens, UniProt P48775). The experiment in a line: Inhibition of TDO in human SW480 cells incubated for 48 hrs using L-tryptophan as substrate by fluorescence based assay. In kind it is cell-based.
Series [24] can be described thus: Apparent permeability of compound. It counts as ADME. The conditions noted are these: not told.
Series [25] has as its target Indoleamine 2,3-dioxygenase 1 (Rattus norvegicus, UniProt Q9ERD9). Briefly: Inhibition of rat IDO1 preincubated for 30 mins followed by substrate tryptophan addition and measured after 60 mins by fluorescence based assay.
Series [26] can be described thus: Chemical stability of compound in H2O2 assessed as parent compound remaining measured after 24 hrs. The note with it: read-out: Stability. It counts as physicochemical.
Series [27] deals with T2, Nuclear receptor subfamily 1 group I member 2 (Homo sapiens, UniProt O75469).
T2 sequence (O75469 whole entry): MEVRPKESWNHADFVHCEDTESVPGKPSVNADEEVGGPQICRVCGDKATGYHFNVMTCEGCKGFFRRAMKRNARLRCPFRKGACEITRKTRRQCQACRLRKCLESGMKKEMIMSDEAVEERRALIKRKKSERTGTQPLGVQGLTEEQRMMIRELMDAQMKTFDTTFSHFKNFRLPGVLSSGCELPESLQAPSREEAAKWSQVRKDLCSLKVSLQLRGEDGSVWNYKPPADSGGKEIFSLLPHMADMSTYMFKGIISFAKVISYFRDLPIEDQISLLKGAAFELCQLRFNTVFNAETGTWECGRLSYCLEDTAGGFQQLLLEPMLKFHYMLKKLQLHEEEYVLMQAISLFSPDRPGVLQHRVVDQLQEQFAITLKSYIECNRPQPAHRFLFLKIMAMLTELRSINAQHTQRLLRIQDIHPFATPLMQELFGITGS
The experiment in a line: Activation of PXR (unknown origin).

The nature of series [28]: Chemical stability of compound in 0.1 N HCl assessed as parent compound remaining measured after 24 hrs. In kind it is physicochemical. The conditions noted are these: read-out: Stability.

Structures are written as SMILES. Where only a bound is given, the exact number is not on record here.

The term IC50 denotes the midpoint of a concentration-inhibition curve. One may read the MRT as the average time that molecules of a dose stay in the body. The clearance is the rate of elimination divided by the concentration. Broadly, the logD is lipophilicity at a set pH, counting ionised and neutral species. A word on the bioavailability: it is the share of a dose that reaches the circulation, judged against a reference dose that is usually intravenous. In general, half-life refers to how long it takes for the measured level to halve. By Papp is commonly meant a coefficient for how fast a substance crosses the barrier. The term EC50 denotes the concentration that produces a half-maximal response.

T1 sequence (P14902 whole entry): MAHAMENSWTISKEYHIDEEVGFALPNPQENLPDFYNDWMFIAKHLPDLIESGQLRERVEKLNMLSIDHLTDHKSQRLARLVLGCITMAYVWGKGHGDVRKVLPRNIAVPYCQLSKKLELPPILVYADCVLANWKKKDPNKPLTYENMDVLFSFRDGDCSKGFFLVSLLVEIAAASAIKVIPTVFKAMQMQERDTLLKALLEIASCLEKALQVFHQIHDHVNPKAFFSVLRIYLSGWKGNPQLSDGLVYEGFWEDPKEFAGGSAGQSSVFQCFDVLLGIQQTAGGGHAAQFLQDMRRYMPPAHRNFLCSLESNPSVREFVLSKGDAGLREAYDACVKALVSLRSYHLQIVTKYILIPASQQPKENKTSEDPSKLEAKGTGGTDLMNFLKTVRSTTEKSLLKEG
Sequence of Tryptophan 2,3-dioxygenase (P48775 whole entry): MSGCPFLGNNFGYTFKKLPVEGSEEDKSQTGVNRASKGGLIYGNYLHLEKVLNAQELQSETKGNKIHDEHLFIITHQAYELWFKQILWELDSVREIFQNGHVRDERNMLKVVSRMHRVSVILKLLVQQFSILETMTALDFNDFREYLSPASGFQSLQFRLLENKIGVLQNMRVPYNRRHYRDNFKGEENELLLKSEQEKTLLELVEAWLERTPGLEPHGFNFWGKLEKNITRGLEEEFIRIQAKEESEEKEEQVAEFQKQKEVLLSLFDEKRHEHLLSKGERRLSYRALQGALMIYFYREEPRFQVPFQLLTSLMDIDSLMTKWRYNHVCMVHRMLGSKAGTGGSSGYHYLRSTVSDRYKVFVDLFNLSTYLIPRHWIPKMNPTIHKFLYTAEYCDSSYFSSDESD
Sequence of Indoleamine 2,3-dioxygenase 1 (Rattus norvegicus, UniProt Q9ERD9) (Q9ERD9 whole entry): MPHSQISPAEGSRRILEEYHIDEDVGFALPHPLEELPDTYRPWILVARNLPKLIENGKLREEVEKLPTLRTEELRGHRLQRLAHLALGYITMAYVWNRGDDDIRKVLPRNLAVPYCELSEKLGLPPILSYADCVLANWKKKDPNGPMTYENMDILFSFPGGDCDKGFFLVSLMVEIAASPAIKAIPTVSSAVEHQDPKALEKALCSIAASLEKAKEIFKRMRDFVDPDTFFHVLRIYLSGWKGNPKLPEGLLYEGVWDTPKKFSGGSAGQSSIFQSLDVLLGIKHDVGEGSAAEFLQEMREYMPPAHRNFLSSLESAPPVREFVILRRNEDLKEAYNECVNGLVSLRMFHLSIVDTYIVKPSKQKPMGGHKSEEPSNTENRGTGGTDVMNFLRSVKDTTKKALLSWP

For the molecule `Nc1nonc1/C(=N/O)NC1Cc2cc(F)ccc21` (stereo not given), the IC50 stood at 150 nM in series [1] and 735 nM in [2].
Consider `Nc1nonc1/C(=N/O)NC1Cc2ccccc2C1`, for which the IC50 in series [2] came out at 43800 nM.
With `NC(=O)CNc1nonc1/C(=N/O)N[C@H]1Cc2ccc(F)cc21`, the CLint scaled in series [3] stood at 523 mL/min/kg; in series [5] it was 499 mL/min/kg. Also, the mean residence time (MRT) in series [4] was determined as 1.7 h. The molecule further came in with a clearance in [6] of 17 mL/min/kg.
For the molecule `O=C(CSc1nonc1/C(=N/O)N[C@H]1Cc2ccc(F)cc21)NCCO`, the CLint scaled in series [3] is 108 mL/min/kg; in series [5], 2500 mL/min/kg. Also, the MRT in series [4] is 0.8 h. The molecule also came in with a pH-dependent lipophilicity (logD) in series [7] of 2. In series [6], this molecule returned a clearance of 42 mL/min/kg.
The molecule `Nc1nonc1/C(=N/O)N[C@H]1Cc2ccc(F)cc21` registered an MRT in series [4] of 0.4 h. In series [5], this molecule registered a CLint scaled of 7380 mL/min/kg. Further, in [7], the logD came out at 2.7. Further, in series [6], the clearance was found to be 60 mL/min/kg.
Take `Nc1nonc1/C(=N/O)NC1CCCc2ccccc21` (stereo not given): in series [2], the IC50 stood at 2750 nM.
For the molecule `O=C(CNc1nonc1/C(=N/O)N[C@H]1Cc2ccc(F)cc21)NCCO`, the remaining at 3 h came out at 98.1% in series [8], 88.4% in series [17] and 97.4% in [22]. Further, the CL free in series [9] came out at 319 mL/min/kg; in [14], 88 mL/min/kg. For the same molecule, the figures for the Activity entry (in series [10]; with EMT6 [13]; in the series with EMT6 [20]) were “Non-Toxic”, 79% and 15%, respectively. The CLint scaled in series [3] was found to be 48 mL/min/kg; in series [5], 112 mL/min/kg. This molecule also gave an MRT in series [4] of 2.9 h. Also, the bioavailability in [11] was found to be 67%; in series [15], 63%. Also, the clearance is 6 mL/min/kg in series [12] and 15 mL/min/kg in [6]. In series [7], this molecule yielded a logD of 1.9 to 2. In [16], the half-life is 6 h. In addition, the remaining at 24 h in series [18] was 81.5%; in series [19], 77.1%; in [26] it was 97%; in [28] it was 96.2%. Further, the IC50 in [21] was 28 nM; against CYP450 it was over 50000 nM; in [23], over 10000 nM; in series [25], 59 nM. Also, the Papp in series [24] was found to be 25 ×10⁻⁶ cm/s. In series [27], the EC50 is over 30000 nM.
For `NS(=O)(=O)NCCNc1nonc1/C(=N/O)N[C@H]1Cc2ccc(F)cc21`, the CLint scaled in [3] worked out at 462 mL/min/kg; in series [5], 463 mL/min/kg. Besides, the MRT in series [4] amounted to 2 h. The molecule further had a logD in [7] of 2.4. The molecule also had a clearance in series [6] of 12 mL/min/kg.
Regarding `NS(=O)(=O)NCCSc1nonc1/C(=N/O)N[C@H]1Cc2ccc(F)cc21`, the results for the CLint scaled in series [3] and in series [5] were 616 mL/min/kg and 977 mL/min/kg, respectively. This molecule yielded an MRT in [4] of 2.5 h. In [7], this molecule came in with a logD of 2.45. Also, the clearance in series [6] is 14 mL/min/kg.
As to `Nc1nonc1/C(=N/O)NC1Cc2cc(F)c(F)cc21` (stereo not given), the IC50 in series [1] was 75 nM; in series [2], 392 nM.
As to `CC(=O)NCCNc1nonc1/C(=N/O)N[C@H]1Cc2ccc(F)cc21`, the CLint scaled in series [3] stood at 863 mL/min/kg; in series [5], 3550 mL/min/kg. Also, the MRT in [4] came out at 0.4 h. The molecule further had a clearance in series [6] of 51 mL/min/kg.
For the molecule `CC(=O)NCCSc1nonc1/C(=N/O)N[C@H]1Cc2ccc(F)cc21`, the figures for the CLint scaled in series [3] and in series [5] were 354 mL/min/kg and 1880 mL/min/kg, respectively. The molecule also returned an MRT in series [4] of 1 h. The same molecule registered a logD in [7] of 2.46. In addition, the clearance in series [6] was found to be 29 mL/min/kg.

The record behind these values is ChEMBL document CHEMBL4406911, “Discovery of Amino-cyclobutarene-derived Indoleamine-2,3-dioxygenase 1 (IDO1) Inhibitors for Cancer Immunotherapy” (ACS Med Chem Lett, 2019).
